What was measured:
[1] = tested on: Tyrosine-protein kinase ABL1 (Homo sapiens), P00519 [Q252H]; conditions: Compound concentration 1000.0 nM
[2] = target: Atypical kinase COQ8A, mitochondrial (Homo sapiens) (UniProt Q8NI60); conditions: Compound concentration 1000.0 nM
[3] = target: ALK tyrosine kinase receptor (Homo sapiens) (UniProt Q9UM73); conditions: Compound concentration 1000.0 nM
[4] = tested on: ALK tyrosine kinase receptor (Homo sapiens), Q9UM73 [L1196M]; conditions: Compound concentration 1000.0 nM
[5] = target: 5'-AMP-activated protein kinase catalytic subunit alpha-1 (Homo sapiens) (UniProt Q13131); conditions: Compound concentration 1000.0 nM
[6] = target: NUAK family SNF1-like kinase 1 (Homo sapiens) (UniProt O60285); conditions: Compound concentration 1000.0 nM
[7] = target: BMP-2-inducible protein kinase (Homo sapiens) (UniProt Q9NSY1); conditions: Compound concentration 1000.0 nM
[8] = target: Cytoplasmic tyrosine-protein kinase BMX (Homo sapiens) (UniProt P51813); conditions: Compound concentration 1000.0 nM
[9] = target: Calcium/calmodulin-dependent protein kinase type II subunit delta (Homo sapiens) (UniProt Q13557); conditions: Compound concentration 1000.0 nM
[10] = target: Calcium/calmodulin-dependent protein kinase type II subunit gamma (Homo sapiens) (UniProt Q13555); conditions: Compound concentration 1000.0 nM
[11] = target: Cyclin-dependent kinase 4 (Homo sapiens) (UniProt P11802); conditions: Compound concentration 1000.0 nM
[12] = target: Cyclin-dependent kinase 5 (Homo sapiens) (UniProt Q00535); conditions: Compound concentration 1000.0 nM
[13] = target: Cyclin-dependent kinase-like 2 (Homo sapiens) (UniProt Q92772); conditions: Compound concentration 1000.0 nM
[14] = target: Macrophage colony-stimulating factor 1 receptor (Homo sapiens) (UniProt P07333); conditions: Compound concentration 1000.0 nM
[15] = target: Casein kinase I isoform gamma-1 (Homo sapiens) (UniProt Q9HCP0); conditions: Compound concentration 1000.0 nM
[16] = tested on: Epidermal growth factor receptor (Homo sapiens), P00533 [G719S]; conditions: Compound concentration 1000.0 nM
[17] = tested on: Epidermal growth factor receptor (Homo sapiens), P00533 [T790M]; conditions: Compound concentration 1000.0 nM
[18] = target: Ephrin type-A receptor 4 (Homo sapiens) (UniProt P54764); conditions: Compound concentration 1000.0 nM
[19] = target: Mitogen-activated protein kinase 4 (Homo sapiens) (UniProt P31152); conditions: Compound concentration 1000.0 nM
[20] = target: Homeodomain-interacting protein kinase 1 (Homo sapiens) (UniProt Q86Z02); conditions: Compound concentration 1000.0 nM
[21] = target: Homeodomain-interacting protein kinase 4 (Homo sapiens) (UniProt Q8NE63); conditions: Compound concentration 1000.0 nM
[22] = target: LIM domain kinase 2 (Homo sapiens) (UniProt P53671); conditions: Compound concentration 1000.0 nM
[23] = target: Mitogen-activated protein kinase kinase kinase 13 (Homo sapiens) (UniProt O43283); conditions: Compound concentration 1000.0 nM
[24] = target: Mitogen-activated protein kinase kinase kinase kinase 3 (Homo sapiens) (UniProt Q8IVH8); conditions: Compound concentration 1000.0 nM
[25] = target: Serine/threonine-protein kinase MARK2 (Homo sapiens) (UniProt Q7KZI7); conditions: Compound concentration 1000.0 nM
[26] = target: Macrophage-stimulating protein receptor (Homo sapiens) (UniProt Q04912); conditions: Compound concentration 1000.0 nM
[27] = target: Serine/threonine-protein kinase 26 (Homo sapiens) (UniProt Q9P289); conditions: Compound concentration 1000.0 nM
[28] = target: Serine/threonine-protein kinase Nek3 (Homo sapiens) (UniProt P51956); conditions: Compound concentration 1000.0 nM
[29] = tested on: Phosphatidylinositol 4,5-bisphosphate 3-kinase catalytic subunit alpha isoform (Homo sapiens), P42336 [I800L]; conditions: Compound concentration 1000.0 nM
[30] = tested on: Phosphatidylinositol 4,5-bisphosphate 3-kinase catalytic subunit alpha isoform (Homo sapiens), P42336 [M1043I]; conditions: Compound concentration 1000.0 nM
[31] = target: Phosphatidylinositol 4-phosphate 5-kinase type-1 gamma (Homo sapiens) (UniProt O60331); conditions: Compound concentration 1000.0 nM
[32] = target: Membrane-associated tyrosine- and threonine-specific cdc2-inhibitory kinase (Homo sapiens) (UniProt Q99640); conditions: Compound concentration 1000.0 nM
[33] = target: Uncharacterized serine/threonine-protein kinase SBK3 (Homo sapiens) (UniProt P0C264); conditions: Compound concentration 1000.0 nM
[34] = target: Serine/threonine-protein kinase 36 (Homo sapiens) (UniProt Q9NRP7); conditions: Compound concentration 1000.0 nM
[35] = target: NT-3 growth factor receptor (Homo sapiens) (UniProt Q16288); conditions: Compound concentration 1000.0 nM
[36] = target: Serine/threonine-protein kinase 25 (Homo sapiens) (UniProt O00506); conditions: Compound concentration 1000.0 nM
[37] = target: T1, Muscarinic acetylcholine receptor M5 (Homo sapiens) (UniProt P08912); conditions: Compound concentration 10.0 uM
T1 sequence (whole entry): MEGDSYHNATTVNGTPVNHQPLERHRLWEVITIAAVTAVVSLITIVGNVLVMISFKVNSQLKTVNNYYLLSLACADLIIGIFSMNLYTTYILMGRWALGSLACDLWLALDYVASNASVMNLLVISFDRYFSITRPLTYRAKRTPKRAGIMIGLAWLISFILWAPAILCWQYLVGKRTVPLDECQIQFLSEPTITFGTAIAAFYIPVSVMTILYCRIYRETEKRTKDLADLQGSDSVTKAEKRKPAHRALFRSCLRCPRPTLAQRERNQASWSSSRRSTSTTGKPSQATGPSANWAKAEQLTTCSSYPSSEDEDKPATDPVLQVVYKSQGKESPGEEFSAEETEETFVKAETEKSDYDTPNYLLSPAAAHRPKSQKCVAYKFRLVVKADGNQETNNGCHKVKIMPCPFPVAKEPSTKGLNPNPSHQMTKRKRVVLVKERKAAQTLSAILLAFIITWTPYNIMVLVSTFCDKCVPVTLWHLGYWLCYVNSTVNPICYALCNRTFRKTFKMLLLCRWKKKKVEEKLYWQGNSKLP

[38] = target: Beta-3 adrenergic receptor (Homo sapiens) (UniProt P13945); conditions: Compound concentration 10.0 uM

Sequence of ALK tyrosine kinase receptor (Homo sapiens) (Q9UM73 19-1620 limits assumed): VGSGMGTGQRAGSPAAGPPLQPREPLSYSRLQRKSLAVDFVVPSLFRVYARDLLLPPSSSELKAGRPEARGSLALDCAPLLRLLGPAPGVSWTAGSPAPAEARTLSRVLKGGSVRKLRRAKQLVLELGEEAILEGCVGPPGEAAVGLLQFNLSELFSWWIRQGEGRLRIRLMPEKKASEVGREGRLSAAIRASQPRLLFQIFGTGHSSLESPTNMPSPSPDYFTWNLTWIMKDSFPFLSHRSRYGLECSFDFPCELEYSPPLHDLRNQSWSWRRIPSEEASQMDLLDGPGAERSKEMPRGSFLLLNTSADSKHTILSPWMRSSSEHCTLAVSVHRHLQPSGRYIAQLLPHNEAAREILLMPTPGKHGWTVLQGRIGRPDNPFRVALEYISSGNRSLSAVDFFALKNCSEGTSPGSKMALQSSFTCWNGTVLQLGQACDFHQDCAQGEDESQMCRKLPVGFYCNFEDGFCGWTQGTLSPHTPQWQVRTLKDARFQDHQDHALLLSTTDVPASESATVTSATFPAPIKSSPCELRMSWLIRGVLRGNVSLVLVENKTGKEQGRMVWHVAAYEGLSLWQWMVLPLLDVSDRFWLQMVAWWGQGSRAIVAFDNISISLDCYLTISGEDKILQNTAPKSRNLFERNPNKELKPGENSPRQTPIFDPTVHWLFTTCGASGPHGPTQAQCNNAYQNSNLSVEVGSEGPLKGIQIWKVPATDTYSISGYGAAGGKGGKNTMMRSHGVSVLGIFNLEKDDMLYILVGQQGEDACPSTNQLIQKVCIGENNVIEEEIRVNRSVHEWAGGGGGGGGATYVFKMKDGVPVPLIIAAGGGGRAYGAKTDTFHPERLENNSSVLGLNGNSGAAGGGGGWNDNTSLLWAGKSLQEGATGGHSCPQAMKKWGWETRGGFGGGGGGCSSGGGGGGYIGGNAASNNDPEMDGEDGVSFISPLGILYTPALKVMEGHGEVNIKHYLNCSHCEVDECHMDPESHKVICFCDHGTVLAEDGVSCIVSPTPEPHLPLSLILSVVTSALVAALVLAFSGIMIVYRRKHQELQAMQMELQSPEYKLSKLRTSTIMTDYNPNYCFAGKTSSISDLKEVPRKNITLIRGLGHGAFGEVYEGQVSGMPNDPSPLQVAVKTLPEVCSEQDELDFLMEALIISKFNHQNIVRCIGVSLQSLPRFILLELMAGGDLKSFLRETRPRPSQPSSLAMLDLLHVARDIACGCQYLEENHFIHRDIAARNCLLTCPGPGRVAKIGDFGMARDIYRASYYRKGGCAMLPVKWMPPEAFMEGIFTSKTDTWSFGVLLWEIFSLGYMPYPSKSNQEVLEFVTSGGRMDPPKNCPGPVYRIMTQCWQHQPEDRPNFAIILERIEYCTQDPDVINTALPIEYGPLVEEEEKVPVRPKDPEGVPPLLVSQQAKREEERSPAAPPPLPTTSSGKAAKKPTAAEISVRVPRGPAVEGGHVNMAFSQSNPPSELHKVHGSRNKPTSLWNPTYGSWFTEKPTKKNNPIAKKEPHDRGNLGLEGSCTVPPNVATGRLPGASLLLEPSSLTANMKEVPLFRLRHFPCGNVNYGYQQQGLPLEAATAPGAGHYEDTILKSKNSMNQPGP
Sequence of Cytoplasmic tyrosine-protein kinase BMX (Homo sapiens) (P51813 whole entry): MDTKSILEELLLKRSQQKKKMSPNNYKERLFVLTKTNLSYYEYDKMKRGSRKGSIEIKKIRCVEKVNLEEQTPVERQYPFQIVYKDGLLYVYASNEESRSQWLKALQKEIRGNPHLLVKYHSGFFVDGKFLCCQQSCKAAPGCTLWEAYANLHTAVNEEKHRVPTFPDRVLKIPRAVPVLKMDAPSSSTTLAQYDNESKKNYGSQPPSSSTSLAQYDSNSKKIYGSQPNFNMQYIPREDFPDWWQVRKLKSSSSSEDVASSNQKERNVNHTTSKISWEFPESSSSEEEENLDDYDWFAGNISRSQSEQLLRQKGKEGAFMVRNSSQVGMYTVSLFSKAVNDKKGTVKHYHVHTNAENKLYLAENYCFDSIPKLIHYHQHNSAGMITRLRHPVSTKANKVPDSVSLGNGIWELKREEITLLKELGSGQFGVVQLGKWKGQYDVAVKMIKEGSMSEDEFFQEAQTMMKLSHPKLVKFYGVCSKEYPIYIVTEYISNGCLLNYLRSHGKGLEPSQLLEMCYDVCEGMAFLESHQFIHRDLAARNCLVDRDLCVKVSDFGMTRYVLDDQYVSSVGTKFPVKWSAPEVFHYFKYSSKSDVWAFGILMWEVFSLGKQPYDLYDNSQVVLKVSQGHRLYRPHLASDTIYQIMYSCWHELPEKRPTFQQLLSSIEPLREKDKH
Sequence of Macrophage colony-stimulating factor 1 receptor (Homo sapiens) (P07333 whole entry, canonical isoform): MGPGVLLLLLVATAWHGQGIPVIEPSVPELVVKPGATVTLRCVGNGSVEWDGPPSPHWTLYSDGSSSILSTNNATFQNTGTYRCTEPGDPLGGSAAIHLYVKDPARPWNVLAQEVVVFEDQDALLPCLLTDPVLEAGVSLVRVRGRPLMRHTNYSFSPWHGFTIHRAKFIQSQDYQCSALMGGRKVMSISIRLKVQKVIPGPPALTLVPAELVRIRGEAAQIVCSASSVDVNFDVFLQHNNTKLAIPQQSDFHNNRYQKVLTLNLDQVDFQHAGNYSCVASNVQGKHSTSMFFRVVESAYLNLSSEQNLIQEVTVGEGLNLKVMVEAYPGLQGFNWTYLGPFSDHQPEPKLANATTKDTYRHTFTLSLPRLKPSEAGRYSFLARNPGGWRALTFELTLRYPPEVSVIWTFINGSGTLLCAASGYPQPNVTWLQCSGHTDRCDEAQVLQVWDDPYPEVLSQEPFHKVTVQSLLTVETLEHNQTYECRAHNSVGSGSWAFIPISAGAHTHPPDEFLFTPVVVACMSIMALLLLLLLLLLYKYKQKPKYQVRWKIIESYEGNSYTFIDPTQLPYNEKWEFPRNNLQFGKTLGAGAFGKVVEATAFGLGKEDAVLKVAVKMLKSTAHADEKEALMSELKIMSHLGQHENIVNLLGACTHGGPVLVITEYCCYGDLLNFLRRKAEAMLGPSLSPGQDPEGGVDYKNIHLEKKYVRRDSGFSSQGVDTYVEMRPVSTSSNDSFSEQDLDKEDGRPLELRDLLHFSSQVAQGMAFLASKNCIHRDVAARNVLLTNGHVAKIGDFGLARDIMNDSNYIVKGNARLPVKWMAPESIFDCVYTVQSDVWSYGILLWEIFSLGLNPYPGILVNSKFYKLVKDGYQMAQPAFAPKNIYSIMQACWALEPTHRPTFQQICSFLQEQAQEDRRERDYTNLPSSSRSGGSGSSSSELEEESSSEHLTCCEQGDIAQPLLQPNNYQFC
Sequence of Macrophage-stimulating protein receptor (Homo sapiens) (Q04912 25-304 limits assumed): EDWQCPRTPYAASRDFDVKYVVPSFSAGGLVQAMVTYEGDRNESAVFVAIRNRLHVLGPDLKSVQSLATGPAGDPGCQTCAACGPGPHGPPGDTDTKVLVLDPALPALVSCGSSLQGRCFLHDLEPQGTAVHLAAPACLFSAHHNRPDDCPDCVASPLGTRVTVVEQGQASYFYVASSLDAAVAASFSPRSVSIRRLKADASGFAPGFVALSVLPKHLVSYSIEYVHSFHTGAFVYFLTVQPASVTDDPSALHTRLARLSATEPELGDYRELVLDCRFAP
Sequence of Macrophage-stimulating protein receptor (Homo sapiens) (Q04912 310-1400 limits assumed): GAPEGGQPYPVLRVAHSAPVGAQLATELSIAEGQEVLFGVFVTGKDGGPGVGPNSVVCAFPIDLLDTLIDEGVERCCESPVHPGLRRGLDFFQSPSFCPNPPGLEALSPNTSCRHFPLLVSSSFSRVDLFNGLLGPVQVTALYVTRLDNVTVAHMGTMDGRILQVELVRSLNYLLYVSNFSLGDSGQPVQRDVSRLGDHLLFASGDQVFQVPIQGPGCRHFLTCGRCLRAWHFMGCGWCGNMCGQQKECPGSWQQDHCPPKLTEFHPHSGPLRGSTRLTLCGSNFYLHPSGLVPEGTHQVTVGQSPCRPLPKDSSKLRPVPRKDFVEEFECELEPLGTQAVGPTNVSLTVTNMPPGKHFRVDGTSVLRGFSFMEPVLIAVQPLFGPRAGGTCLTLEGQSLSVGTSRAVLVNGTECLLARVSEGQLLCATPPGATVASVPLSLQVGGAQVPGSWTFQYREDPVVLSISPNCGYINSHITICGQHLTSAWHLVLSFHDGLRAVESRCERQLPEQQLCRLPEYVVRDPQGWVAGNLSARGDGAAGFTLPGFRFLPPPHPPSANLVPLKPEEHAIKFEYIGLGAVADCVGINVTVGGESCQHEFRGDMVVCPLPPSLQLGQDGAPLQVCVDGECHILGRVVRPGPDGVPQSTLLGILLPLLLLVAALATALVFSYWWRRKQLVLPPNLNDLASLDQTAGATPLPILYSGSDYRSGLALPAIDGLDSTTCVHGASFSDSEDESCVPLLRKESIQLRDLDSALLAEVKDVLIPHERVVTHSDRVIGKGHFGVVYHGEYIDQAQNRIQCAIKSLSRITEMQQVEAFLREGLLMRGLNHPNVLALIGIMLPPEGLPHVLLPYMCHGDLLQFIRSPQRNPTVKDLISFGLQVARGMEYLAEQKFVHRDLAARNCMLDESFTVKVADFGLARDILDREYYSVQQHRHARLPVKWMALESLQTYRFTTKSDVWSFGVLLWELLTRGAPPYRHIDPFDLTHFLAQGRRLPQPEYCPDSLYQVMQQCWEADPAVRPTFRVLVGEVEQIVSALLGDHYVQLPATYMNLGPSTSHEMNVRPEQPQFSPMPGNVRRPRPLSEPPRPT
Sequence of Casein kinase I isoform gamma-1 (Homo sapiens) (Q9HCP0 whole entry, looked up, canonical isoform): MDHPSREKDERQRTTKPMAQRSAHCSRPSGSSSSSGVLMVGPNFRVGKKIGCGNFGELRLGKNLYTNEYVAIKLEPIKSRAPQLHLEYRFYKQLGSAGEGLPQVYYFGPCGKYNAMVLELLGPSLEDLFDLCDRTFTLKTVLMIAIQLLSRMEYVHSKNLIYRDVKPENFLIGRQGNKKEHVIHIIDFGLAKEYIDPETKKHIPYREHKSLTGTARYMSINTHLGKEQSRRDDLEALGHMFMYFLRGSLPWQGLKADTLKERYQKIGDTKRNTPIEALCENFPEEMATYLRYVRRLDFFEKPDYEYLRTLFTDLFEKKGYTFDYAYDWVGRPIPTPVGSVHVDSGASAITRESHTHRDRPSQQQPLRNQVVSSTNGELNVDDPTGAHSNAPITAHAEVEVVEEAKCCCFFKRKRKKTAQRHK

Structure (SMILES) | residual activity [1] | residual activity [2] | residual activity [3] | residual activity [4] | residual activity [5] | residual activity [6] | residual activity [7] | residual activity [8] | residual activity [9] | residual activity [10] | residual activity [11] | residual activity [12] | residual activity [13] | residual activity [14] | residual activity [15] | residual activity [16] | residual activity [17] | residual activity [18] | residual activity [19] | residual activity [20] | further results
CCC(=N\O)/C(C)=C/c1ccc(F)c(C)c1 [A-226] | 100% | 91% | 97% | 100% | 73% | 96% | 100% | 99% | 100% | 90% | 100% | 86% | 81% | 90% | 100% | 79% | 100% | 100% | 96% | 97% | residual activity [21]: 91%; residual activity [22]: 90%; residual activity [23]: 23%; residual activity [24]: 98%; residual activity [25]: 100%; residual activity [26]: 100%; residual activity [27]: 100%; residual activity [28]: 100%; residual activity [29]: 100%; residual activity [30]: 71%; residual activity [31]: 78%; residual activity [32]: 61%; residual activity [33]: 100%; residual activity [34]: 100%; residual activity [35]: 100%; residual activity [36]: 100%; inhibition [37]: 2.77%; inhibition [38]: 11.1%
CCC(=N\O)/C(C)=C/c1ccc(F)cc1 [A-079] | 90% | 78% | 87% | 71% | 99% | 100% | 80% | 83% | 99% | 100% | 100% | 68% | 92% | 91% | 99% | 67% | 100% | 74% | 75% | 80% | residual activity [21]: 79%; residual activity [22]: 80%; residual activity [23]: 96%; residual activity [24]: 100%; residual activity [25]: 100%; residual activity [26]: 100%; residual activity [27]: 81%; residual activity [28]: 100%; residual activity [29]: 100%; residual activity [30]: 88%; residual activity [31]: 100%; residual activity [32]: 100%; residual activity [33]: 100%; residual activity [34]: 84%; residual activity [35]: 88%; residual activity [36]: 86%; inhibition [37]: 6.68%; inhibition [38]: -0.54%
